Assay [1] relates to Aphis craccivora. Briefly: Insecticidal activity against Aphis craccivora (cowpea aphid) infected soybean tender shoots after 24 hr. The class given is functional.
The subject of assay [2] is Aphis craccivora. Briefly: Insecticidal activity against Aphis craccivora (cowpea aphid) infected soybean tender shoots assessed as mortality at 500 mg/L after 24 hr. The class given is functional.

Take `N=c1sc([N+](=O)[O-])c2n1CCN2Cc1ccc(Cl)nc1`: the LC50 (in general, the concentration that kills 50% of the test population) in the assay on Aphis craccivora [1] worked out at 26.8 µM. Moreover, the mortality (usually the share of the test organisms that died) at 500 µg/mL in the assay with Aphis craccivora [2] turned out to be 100%.

Molecule `N#CS/C(=C1\NCCN1Cc1ccc(Cl)nc1)[N+](=O)[O-]` gave an LC50 with Aphis craccivora [1] of 15.7 µM. Besides, the mortality at 500 µg/mL with Aphis craccivora [2] was 100%.

Take `N#CS/C(=C1\NCCN1Cc1cnc(Cl)s1)[N+](=O)[O-]`: in the assay with Aphis craccivora [1], the LC50 came to 9.74 µM. Besides, the mortality at 500 µg/mL in the assay with Aphis craccivora [2] worked out at 100%.

In turn, `Cn1c(NCc2ccc(Cl)nc2)c([N+](=O)[O-])sc1=N` displayed an LC50 with Aphis craccivora [1] of 118 µM. Also, the mortality at 500 µg/mL in the assay with Aphis craccivora [2] was determined as 100%.

As for `N#CS/C(=C1\NCCN1Cc1ccccc1)[N+](=O)[O-]`, the mortality at 500 µg/mL with Aphis craccivora [2] was 24%.

As for `CCn1c(NCc2ccc(Cl)nc2)c([N+](=O)[O-])sc1=N`, the mortality at 500 µg/mL with Aphis craccivora [2] came out at 50.8%.

`N#Cc1sc(=N)n2c1N(Cc1ccc(Cl)nc1)CC2`: in the assay on Aphis craccivora [2], the mortality at 500 µg/mL turned out to be 32.4%.

Regarding `N=c1sc([N+](=O)[O-])c2n1CCN2Cc1ccccc1`, the mortality at 500 µg/mL in the assay on Aphis craccivora [2] was found to be 16.2%.

`N#CS/C(C#N)=C1\NCCN1Cc1cnc(Cl)s1`: the mortality at 500 µg/mL in the assay on Aphis craccivora [2] is 0%.

Turning to `N#CS/C(C#N)=C1\NCCN1Cc1ccc(Cl)nc1`, the mortality at 500 µg/mL in the assay on Aphis craccivora [2] worked out at 34.6%.

As to `N#CS/C(=C1\NCCN1Cc1ccc(C(F)(F)F)nc1)[N+](=O)[O-]`, the LC50 in the assay on Aphis craccivora [1] is 18.9 µM. Further, the mortality at 500 µg/mL in the assay on Aphis craccivora [2] came to 100%.

For `N#CS/C(=C1\NCCCN1Cc1ccc(Cl)nc1)[N+](=O)[O-]`, the LC50 in the assay with Aphis craccivora [1] stood at 24.9 µM. In addition, in the assay with Aphis craccivora [2], the mortality at 500 µg/mL is 100%.

On to `N=c1sc([N+](=O)[O-])c2n1CCN2Cc1cnc(Cl)s1`, for which the LC50 with Aphis craccivora [1] stood at 17.8 µM. Besides, the mortality at 500 µg/mL with Aphis craccivora [2] came out at 100%.

In the case of `N#CS/C(=C1\Nc2ccccc2N1Cc1ccc(Cl)nc1)[N+](=O)[O-]`, in the assay with Aphis craccivora [2], the mortality at 500 µg/mL came out at 87.8%.

The molecule `N=c1sc([N+](=O)[O-])c2n1CCCN2Cc1ccc(Cl)nc1` registered an LC50 in the assay with Aphis craccivora [1] of 22 µM. The mortality at 500 µg/mL with Aphis craccivora [2] amounted to 100%.

As for `CCN(Cc1ccc(Cl)nc1)c1c([N+](=O)[O-])sc(=N)n1C`, the mortality at 500 µg/mL in the assay on Aphis craccivora [2] is 57.6%.

`N=c1sc([N+](=O)[O-])c2n1CCN2Cc1ccc(C(F)(F)F)nc1`: in the assay with Aphis craccivora [1], the LC50 came to 24.5 µM. Further, in the assay on Aphis craccivora [2], the mortality at 500 µg/mL was found to be 100%.

(Values after ChEMBL document CHEMBL3045882, “Synthesis and biological activity evaluation of novel β-substituted nitromethylene neonicotinoid analogues” (2012).)
